Measured values reported in the NIST ThermoML archive (doi:10.1021/je800664z).

Assay: xn = mol fraction of the nth substance listed
Details: for surface tension liquid-gas: Capillary rise; for mass density / viscosity: 101 kPa, Liquid

C1COCO1 [1,3-dioxolane] + CC(C)O
Details | mass density, 288.15 K [kg/m3] | mass density, 298.15 K [kg/m3] | mass density, 308.15 K [kg/m3] | surface tension liquid-gas, 288.15 K [mN/m] | surface tension liquid-gas, 298.15 K [mN/m] | surface tension liquid-gas, 308.15 K [mN/m] | viscosity, 288.15 K [mPa·s] | viscosity, 298.15 K [mPa·s] | viscosity, 308.15 K [mPa·s]
x1 = 0.05 | 802.01 | 793.33 | 784.33 | 21.98 | 21.22 | 20.48 | 2.285 | 1.69 | 1.299
x1 = 0.1 | 814.65 | 805.66 | 796.38 | 22.23 | 21.52 | 20.8 | 1.846 | 1.429 | 1.126
x1 = 0.15 | 827.45 | 818.26 | 808.69 | 22.53 | 21.8 | 21.1 | 1.564 | 1.237 | 0.999
x1 = 0.2 | 840.43 | 831.03 | 821.18 | 22.85 | 22.1 | 21.42 | 1.371 | 1.099 | 0.895
x1 = 0.25 | 853.56 | 843.97 | 833.89 | 23.2 | 22.4 | 21.7 | 1.221 | 0.992 | 0.817
x1 = 0.3001 | 866.86 | 857.09 | 846.77 | 23.57 | 22.75 | 22 | 1.105 | 0.908 | 0.756
x1 = 0.35 | 880.33 | 870.34 | 859.8 | 23.95 | 23.12 | 22.33 | 1.012 | 0.84 | 0.706
x1 = 0.4 | 893.96 | 883.74 | 873.01 | 24.38 | 23.5 | 22.7 | 0.934 | 0.784 | 0.667
x1 = 0.45 | 907.75 | 897.31 | 886.41 | 24.83 | 23.93 | 23.12 | 0.874 | 0.74 | 0.637
x1 = 0.5 | 921.7 | 911.08 | 899.98 | 25.32 | 24.42 | 23.55 | 0.823 | 0.72 | 0.609
x1 = 0.55 | 935.82 | 925.02 | 913.73 | 25.85 | 24.92 | 24.03 | 0.779 | 0.671 | 0.586
x1 = 0.6 | 950.11 | 939.14 | 927.66 | 26.43 | 25.48 | 24.55 | 0.745 | 0.645 | 0.568
x1 = 0.65 | 964.58 | 953.43 | 941.79 | 27.05 | 26.1 | 25.15 | 0.719 | 0.626 | 0.555
x1 = 0.7001 | 979.2 | 967.87 | 956.09 | 27.75 | 26.77 | 25.8 | 0.697 | 0.611 | 0.542
x1 = 0.75 | 994.01 | 982.51 | 970.57 | 28.57 | 27.53 | 26.5 | 0.682 | 0.599 | 0.531
x1 = 0.8 | 1009 | 997.36 | 985.26 | 29.47 | 28.38 | 27.28 | 0.671 | 0.592 | 0.525
x1 = 0.85 | 1024.2 | 1012.38 | 1000.13 | 30.5 | 29.33 | 28.1 | 0.657 | 0.587 | 0.52
x1 = 0.9 | 1039.61 | 1027.67 | 1015.21 | 31.63 | 30.37 | 28.95 | 0.636 | 0.585 | 0.519
x1 = 0.95 | 1055.25 | 1043.29 | 1030.71 | 32.95 | 31.43 | 29.82 | 0.635 | 0.587 | 0.523
x1 = 1 | 1071.24 | 1059.29 | 1046.85 | 34.37 | 32.55 | 30.67 | 0.667 | 0.596 | 0.535
